Test results: EP0393604B1, “6,11-Dihydro-5H-pyrido(2,3-b)(1,5,)benzodiazepin-5-ones and thiones and their use in the prevention or treatment of AIDS” (priority 1989, dated 1990)
Read-outs that look alike come from different tables or passages of the source.

Legend:
[1] = molecular target: T1, HIV-1 RT (Human immunodeficiency virus type 1 group M subtype B, UniProt P03367); assay: Reverse Transcriptase (RT) Assay: inhibition of RNA-dependent DNA polymerase activity; assay type: biochemical; conditions: for inhibition at 10 µg/mL: read-out: RT Inhibition % @ 10µg/ml
T1 construct: Reverse transcriptase enzyme from the LAV strain of Human Immunodeficiency Virus (HIV-1) (1) was isolated from the bacterial strain JM109; made in house; host or cells: E. coli JM109, clone pBRTprt1+ in vector pIBI21, lac promoter, IPTG induction
Excerpt: Utilizing the Reverse Transcriptase (RT) Assay descibed below, compounds can be tested for their ability to inhibit the RNA-dependent DNA polymerase activity of HIV-1 RT. Certain specific compounds of formula I described in the Examples which appear below, were so tested. The above-described compounds of formula IA were also so tested.
Among the enzymes for which Human Immunodeficiency Virus (HIV-1) encodes is a reverse transcriptase (1), so-named because it transcribes a DNA copy from an RNA template. This activity can be quantitatively measured in a cell-free enzyme assay which has been previously described (2), and is based upon the observation that reverse transcriptase is able to use a synthetic template [poly r(C) primed with oligo d(G)] to transcribe a radio-labelled, acid-precipitable DNA strand utilizing ^3H-dGTP as a substrate.
Reverse transcriptase enzyme from the LAV strain of Human Immunodeficiency Virus (HIV-1) (1) was isolated from the bacterial strain JM109 (3) expressing the DNA clone pBRTprt1+ (2) which is under the control of the lac promoter in the expression vector pIBI21 (4). An overnight culture grown in 2XYT medium (37°C, 225 rpm) (5) supplemented with 100 µg/ml ampicillin for positive selection is inoculated at a 1:40 dilution into M9 medium supplemented with 10µg/ml thiamine, 0.5% casamino acids, and 50 µg/ml ampicillin (5). The culture is incubated (37°C, 225 rpm) until it reaches an OD540 of 0.3-0.4. At that time the repressor inhibitor IPTG (isopropyl b-D-thiogalactopyranoside) is added to 0.5mM and the mixture is incubated for 2 additional hours. Bacteria are pelleted, resuspended in a 50mM Tris, 0.6mM EDTA, 0.375M NaCl buffer and digested by the addition of lysozyme (1mg/ml) for 30 minutes on ice. The cells are lysed by the addition of 0.2% NP-40 and brought to 1M NaCl.
After removal of the insoluble debris by centrifugation, the protein is precipitated by the addition of 3 volumes of water-saturated ammonium sulfate. The enzyme is pelleted, resuspended in RT buffer (50mM Tris pH 7.5. 1mM EDTA, 5mM DTT, 0.1% NP-40, 0.1M NaCl, and 50% glycerol), and stored at -70°C for further use.
The 2X concentrated stock reaction mixture is aliquoted and stored at -20°C. The mixture is stable and thawed for use in each assay. This enzyme assay has been adapted to a 96 well microtiter plate system, and has been previously described (6). Tris buffer (50 mM, pH 7.4), vehicle (solvent diluted to match the compound dilution), or compounds in vehicle are dispensed into 96-well microtiter plates (10µl/well: 3 wells/compound). The HIV-1 RT enzyme is thawed and diluted in 50mM Tris pH 7.4 so that fifteen µl of diluted enzyme contain 0.001 Unit (one unit is that amount of enzyme to transform 1 micromole of substrate per minute at 25°C) and 15µl are dispensed per well. Twenty µl of 0.12 - 0.5M EDTA are added to the first three wells of the microtiter plate. EDTA chelates the Mg^++ present and prevents reverse transcription. This group serves as background polymerization which is subtracted from all other groups. Twenty-five ul of the 2X reaction mixture are added to all wells and the assay is allowed to incubate at room temperature for 60 minutes. The assay is terminated by precipitating the DNA in each well with 50µl of trichloracetic acid (TCA) (10% w/v) in sodium pyrophosphate (1% w/v). The microtiter plate is incubated for 15 minutes at 4°C and the precipitate is fixed onto #30 glass fiber paper (Schleicher & Schuell) using a Skatron semi-automatic harvester. The filters are then washed with additional TCA (5%) containing sodium pyrophosphate (1%), rinsed with aqueous ethanol (70%), dried, and transferred to scintillation vials (6). Each vial receives 2 mls of scintillation cocktail and is counted in a Beckman beta counter. […]

[2] = test system: HTLV-IIIB strain of HIV-1; assay: Human T-Cell Culture Assay (syncytia formation in c8166 cells); assay type: cell-based; conditions: Human immunodeficiency virus 1, IIIB, 96 h, syncytia four days after virus challenge
Protocol: In order to confirm that compounds which are active in the RT Assay also have the ability to inhibit HIV-1 replication in a living system, several compounds of formula I were also tested in the Human T-Cell Culture Assay described below.
Formation of syncytia is a feature of in vitro cultures of CD4+ T-cells infected with HIV-1. In this assay, T-cells are treated with a putative replication inhibiting compound and then infected with HIV-1. After incubation the culture is checked for the formation of syncytia. The absence or reduction is the number of syncytia is used as a measure of the test compound's ability to inhibit HIV replication.
The target cells, designated c8166, are a subclone of human lymphoma cells of T-cell origin and are established at an initial density of 5x10^4 per 100 ul in RPMI 1640 (+ 10% fetal bovine serum) culture medium in 96 well flat bottom plates. A selected amount of test compound, dissolved in DMSO is included. After 24 hours, 50-100 TCID50's (the dose that results in induced effect in 50% of test cultures) of the HTLV-IIIB strain of HIV-1 (2) are innoculated into each culture. Control cultures receive compound or virus only. Four days after virus challenge, cultures are visually examined for the frequency and distribution of virus-induced giant cell syncytia. The percent inhibition by the test compound is determined by comparison with control values. Confirmation of the presence or absence of virus replication is accomplished by harvesting the cell free culture fluids from all experimental groups to determine the present or absence of infectious progeny through the induction of syncytia formation in secondary human T-cell cultures after 3 days.

[3] = MTT Assay for Cellular Cytotoxicity; assay type: cell-based, human; conditions: human, H9 cells, five days incubation, read-out: Cytotoxity Assay (EC50)
Protocol: (§1) In order to roughly assess the cytotoxicity of the compounds of formula 1, several such compounds were tested in the MTT Cellular Cytotoxicity Assay described below.
(§2) The MTT [3-(4,5-dimethylthiazol-2yl)-2,5-diphenyl tetrazolium bromide) assay is based on cleavage of tetrazolium bromide by metabolically active cells, resulting in a highly quantitative blue color. This assay has been previously described (1) but has been optimized for the purposes of the testing reported herein.
(§3) Cells (100µl) are plated in microtest plate wells at a concentration of 10^5 cells per ml in the presence of varying concentrations of inhibitor. The cells are incubated at 37°C in a humidified CO2 incubator. […] After 4 hours additional incubation at 37°C, 60µl of Triton-X is added to each well and thoroughly mixed to aid the solubilization of the crystals. Absolute ethanol (5µl) is added to each well and the resulting mixture is incubated for 30 minutes at 60°C and immediately read on a plate reader (Dynatech) at a wavelength of 570nm.
(§4) Data from this assay are used to generate a nonlinear regression analysis, which yields the EC50.

[4] = test system: H9 cell line; assay: MTT Assay for Cellular Cytotoxicity; assay type: cell-based, human; conditions: H9 cells, five days incubation, unit inferred, 7200 min, read-out: Cytotoxity Assay (EC50)
Protocol: as §1, §2, §3, §4

[5] = 10µg/ml, Table I, compounds of formula I

Compound	inhibition at 10 µg/mL [1, 5]	CC50 at 120 h [3]	further results
CCN1c2ccccc2N(C)C(=O)c2cccnc21 [Example 2, 6,11-Dihydro-11-ethyl-6-methyl-5H-pyrido[2,3-b][1,5]benzodiazepin-5-one]	97%	80 µM	inhibition at 4 µM ([2]; @ 4µM): 100%
CN1C(=O)c2cccnc2N(C)c2cc(C(F)(F)F)ccc21 [Example 4, 6,11-Dihydro-6,11-dimethyl-9-(trifluoromethyl)-5H-pyrido[2,3-b][1,5]benzodiazepin-5-one]	79%	49 µM	–
CC(C)N1c2ccccc2N(C)C(=O)c2cccnc21 [Example 5, 6,11-Dihydro-6-methyl-11-methylethyl-5H-pyrido[2,3-b][1,5]benzodiazepin-5-one]	94%	50 µM	inhibition at 19 µM ([2]; @19µM): 100%
CN1C(=O)c2cccnc2N(C)c2ccc(Cl)cc21 [Example 8, 8-Chloro-6,11-dihydro-6,11-dimethyl-5H-pyrido[2,3-b][1,5]benzodiazepin-5-one]	55%	37 µM	–
Cc1cc2c(cc1C)N(C)c1ncccc1C(=O)N2C [Example 9, 6,11-Dihydro-6,8,9,11-tetramethyl-5H-pyrido[2,3-b][1,5]-benzodiazepin-5-one]	92%	4 µM	–
Cc1ccc2c(n1)N(C)c1cc(C)c(C)cc1N(C)C2=O [Example 15, 6,11-Dihydro-2,6,8,9,11-pentamethyl-5H-pyrido[2,3-b][1,5]benzodiazepin-5-one]	39%	–	CC50 at 120 h ([3]; unit inferred): 18 µM
CC(=O)N1c2cc(C)c(C)cc2N(C)C(=O)c2cccnc21 [Example 19, 11-Acetyl-6,11-dihydro-6,8,9-trimethyl-5H-pyrido[2,3-b][1,5]benzodiazepin-5-one]	90%	–	CC50 at 120 h ([3]; unit inferred): 85 µM
CCN1c2ccccc2N(C)C(=S)c2cccnc21 [Example 22, 6,11-Dihydro-11-ethyl-6-methyl-5H-pyrido[2,3-b][1,5]benzodiazepin-5-thione]	–	–	inhibition at 10 µg/mL [1]: 100%; inhibition at 3 µM ([2]; @3µM): 100%
Mixture of 6,11-Dihydro-2,4,6,8,11-and 6,11-dihydro-2,4,6,9,11- pentamethyl-5H-pyrido[2,3-b][1,5]benzodiazepin-5-one [Example 17]	–	–	RT Inhibition % @ 10µg/ml [1, 5]: 49%; CC50 [4]: 9 µM
